# Results published in patent US4130647A, “Methods for treating congestive heart failure and ischemic heart disease” (priority 1977, dated 1978).
# Values joined by “and” are separate entries in the source; they are usually repeats but may differ in a detail not shown here. Equal values may be shown once.
# Tests used:
# [1] = system: patients with chronic left sided congestive heart failure; assay: Resting and exercise blood pressure, heart rate, ST-segment depression and cardiothoracic ratio, trimazosin (Example 3); type: in vivo, human; conditions: for Cardiothoracic ratio / Exercise diastolic blood pressure / Exercise heart rate / Exercise systolic blood pressure / Exercise systolic pressure times heart rate/100 / Maximal ST-segment depression below resting level / Resting diastolic blood pressure / Resting heart rate / Resting systolic blood pressure / Resting systolic pressure times heart rate/100: mean
# Description: (§1) Sixteen men between 41 and 66 years of age with chronic left sided congestive heart failure were subjects. Twelve patients had coronary heart disease with an old healed myocardial infarction, one patient had alcoholic cardiomyopathy, and three patients had idiopathic cardiomyopathy as the cause of their chronic heart failure. All 16 patients had cardiomegaly on physical examination and on their chest roentgenogram, a left ventricular third heart sound heard by auscultation, and evidence of pulmonary venous congestion on their chest roentgenogram. Their baseline standing blood pressures ranged between 114 and 150 mm. Hg. systolic and 72 and 100 mm. Hg. diastolic.
# (§2) After baseline measurements, all 16 patients received one capsule of single-blind placebo three times daily for two weeks. The patients then received in a double-blind, randomized study trimazosin or placebo for six weeks. Eight patients received one placebo capsule three times daily for weeks one and two, two placebo capsules three times daily for weeks three and four, and three placebo capsules three times daily for weeks five and six of the double-blind period. Seven patients received one 50 mg. trimazosin capsule three times daily for weeks one and two, two 50 mg. trimazosin capsules three times daily for weeks three and four, and three 50 mg. trimazosin capsules three times daily for weeks five and six of the double-blind period. One patient (patient number five on trimazosin) received one 50 mg. trimazosin capsule three times daily for 32 days.
# The patients were seen by one of the investigators, questioned for symptoms, and given a physical examination in the baseline period, at the end of two weeks of single-blind placebo, and at the end of weeks one, two, three, four, five, and six on double-blind medication. A standard 12-lead electrocardiogram and PA and lateral chest roentgenograms were taken in the baseline period, at the end of two weeks of single-blind placebo, and at the end of three weeks and six weeks on double-blind medication.
# (§3) Two practice treadmill tests were performed by all patients prior to the baseline period. The patients performed a multi-stage uninterrupted treadmill exercise test until the onset of marked dyspnea in the baseline period, and approximately two hours after their morning dose of medication after two weeks of single-blind placebo, after three weeks of double-blindmedication, and after six weeks of double-blind medication. The patients exercised at a treadmill speed of 1.7 m.p.h. and a treadmill grade of 0% for the first 3 min., a treadmill speed of 1.7 m.p.h. and a treadmill grade of 10% for the next 3 min., at a treadmill speed of 2.5 m.p.h. and a treadmill grade of 12% for the third 3 min. period, and then at a treadmill speed of 3.4 m.p.h. and a treadmill grade of 14%.
# The patients were monitored by telemetry with simultaneous leads II and V5 throughout exercise. […] blood pressures were recorded with the patients in the sitting and standing positions immediately before exercise, with the patients in the standing position at the end of each completed stage of exercise and at the end of exercise, and with the patients in the sitting and standing positions every 1 min. for at least 5 min. after the end of exercise. Blood pressures were recorded with a mercury sphygmomanometer. The heart rates were measured from the electrocardiographic recordings.
# (§4) The data listed in Tables 1-4 were analyzed using Student's t test for independent means. Fisher's exact test was used to analyze the data on improvement of symptoms and the data on changes in roentgenographic evidence of pulmonary venous congestion.
# [2] = system: patients with chronic left sided congestive heart failure; assay: Treadmill exercise duration until marked dyspnea, trimazosin (Example 3); type: in vivo, human; conditions: for improvement in exercise duration vs. placebo: p<0.025
# Description: as §1
# The patients received digitalis and diuretic therapy for 6 to 48 months. Their dose of digitalis and diuretic was not changed during this study. Except for potassium chloride, no other medications were taken by any of the 16 patients during this study. All patients signed informed consent forms.
# as §2, with “days. Their trimazosin dose was not increased after two weeks of this dose because their standing systolic blood pressure was 104/70 mm. Hg.” for “days.”
# as §3, §4
# [3] = patient number five, four days prior to the myocardial infarction
smiles,measurement,setting,value
"COc1cc2c(N)nc(N3CCN(C(=O)OCC(C)(C)O)CC3)nc2c(OC)c1OC [trimazosin, 2-hydroxy-2-methylpropyl 4-(4-amino-6,7,8-trimethoxy-2-quinazolinyl)-1-piperazinecarboxylate]","resting systolic blood pressure, change compared with placebo","[1]; 3 weeks, p<0.001",significant decrease
same,"resting product of systolic blood pressure times heart rate, change compared with placebo","[1]; 3 weeks, p<0.005",significant decrease
same,"resting diastolic blood pressure, change compared with placebo","[1]; 3 weeks, p<0.025",significant decrease
same,"diastolic blood pressure at the end of exercise, change compared with placebo","[1]; 6 weeks, p<0.005",significant decrease
same,"resting diastolic blood pressure, change compared with placebo","[1]; 6 weeks, p<0.005",significant decrease
same,"resting systolic blood pressure, change compared with placebo","[1]; 6 weeks, p<0.005",significant decrease
same,"resting product of systolic blood pressure times heart rate, change compared with placebo","[1]; 6 weeks, p<0.01",significant decrease
same,standing systolic blood pressure,"[1]; patient number five, after two weeks of 50 mg. three times daily",104/70
same,"blood pressure, standing position",[1]; [3],104/70
same,"blood pressure, supine position",[1]; [3],106/70
same,Cardiothoracic ratio,[1]; trimazosin 3 weeks,0.559
same,Exercise diastolic blood pressure,[1]; trimazosin 3 weeks,84.8 mm Hg
same,Exercise heart rate,[1]; trimazosin 3 weeks,149.3 beats/min
same,Exercise systolic blood pressure,[1]; trimazosin 3 weeks,156.5 mm Hg
same,Exercise systolic pressure times heart rate/100,[1]; trimazosin 3 weeks,236.4
same,Maximal ST-segment depression below resting level,[1]; trimazosin 3 weeks,1.31 mm
same,Resting diastolic blood pressure,[1]; trimazosin 3 weeks,74.3 mm Hg
same,Resting heart rate,[1]; trimazosin 3 weeks,86.3 beats/min
same,Resting systolic blood pressure,[1]; trimazosin 3 weeks,116.0 mm Hg
same,Resting systolic pressure times heart rate/100,[1]; trimazosin 3 weeks,100.0
same,Cardiothoracic ratio,[1]; trimazosin 6 weeks,0.556
same,Exercise diastolic blood pressure,[1]; trimazosin 6 weeks,80.5 mm Hg
same,Exercise heart rate,[1]; trimazosin 6 weeks,151.0 beats/min
same,Exercise systolic blood pressure,[1]; trimazosin 6 weeks,154.3 mm Hg
same,Exercise systolic pressure times heart rate/100,[1]; trimazosin 6 weeks,235.4
same,Maximal ST-segment depression below resting level,[1]; trimazosin 6 weeks,1.31 mm
same,Resting diastolic blood pressure,[1]; trimazosin 6 weeks,72.5 mm Hg
same,Resting heart rate,[1]; trimazosin 6 weeks,86.5 beats/min
same,Resting systolic blood pressure,[1]; trimazosin 6 weeks,112.0 mm Hg
same,Resting systolic pressure times heart rate/100,[1]; trimazosin 6 weeks,96.9
same,Double-blind trimazosin (3 weeks) exercise time,"[2]; 300 mg. daily (patient 5: 150 mg. daily), individual patients",180 s and 428 s and 398 s and 280 s and 298 s and 389 s and 476 s and 322 s
same,Double-blind trimazosin (6 weeks) exercise time,"[2]; 450 mg. daily, individual patients",232 s and 295 s and 406 s and 435 s and 627 s and 527 s and 363 s
same,Change from average of baseline and placebo exercise times,"[2]; 3 weeks, 300 mg. daily (patient 5: 150 mg. daily), individual patients",+110%
same,"Double-blind trimazosin (3 weeks) exercise time, mean","[2]; 3 weeks, mean, baseline/placebo average 255.5",346.4 s
same,improvement in exercise duration vs. placebo,[2]; 3 weeks,significantly greater
same,Change from average of baseline and placebo exercise times,"[2]; 6 weeks, 450 mg. daily, individual patients",+136% and +122%
same,"Double-blind trimazosin (6 weeks) exercise time, mean","[2]; 6 weeks, 450 mg. daily, mean",412.1 s
same,improvement in exercise duration vs. placebo,[2]; 6 weeks,significantly greater
